Source: ChEMBL document CHEMBL4808186, “Structure-Based Discovery of Pyrimidine Aminobenzene Derivatives as Potent Oral Reversal Agents against P-gp- and BCRP-Mediated Multidrug Resistance” (J Med Chem, 2021)
Activity calls are given as the source filed them. The calls are words filed in the database; no cut-off is given here.

Columns and labels:
MDCK-II [1] = assay: cells; conditions: Canis lupus familiaris, 48 h
K562 [2] = assay: Cytotoxicity against human K562 cells incubated for 48 hrs by MTT assay; assay type: functional, cell-based; conditions: K562, 48 h
K562/A02 = assay: Cytotoxicity against P-gp overexpressing human K562/A02 cells incubated for 48 hrs by MTT assay; assay type: functional, cell-based; conditions: K562/A02, 48 h
MDCK-II [3] = assay: cells; conditions: Canis lupus familiaris, 48 h; remark: listed apart in the source
K562 [4] = assay: cells; conditions: Homo sapiens, K562, 48 h, read-out: Activity
[5] = target: T1, ATP-dependent translocase ABCB1 (Homo sapiens, UniProt P08183); assay: Inhibition of P-gp-mediated multidrug resistance in human K562/A02 cells assessed as Adriamycin accumulation pretreated 1 hr followed by treated with adriamycin measured after 180 mins by flow cytometry; assay type: cell-based; conditions: k562/a02, 4 h, time 240 min
[6] = target: T1, ATP-dependent translocase ABCB1; assay: Inhibition of P-gp-mediated multidrug resistance in human K562/A02 cells assessed as Adriamycin accumulation at 1 to 10 uM pretreated 1 hr followed by treated with adriamycin measured after 180 mins by fluorescence microscopy; assay type: cell-based; conditions: k562/a02, 4 h, dose 1-10 µM, time 240 min
[7] = n-Octanol/water partition coefficient, logP of the compound by UHPLC analysis; assay type: physicochemical
MDCK-II [8] = assay: Inhibition of BCRP-mediated multidrug resistance in MDCK-II cells assessed as mitoxantrone accumulation at 0.1 to 5 uM pretreated 1 hr followed by treated with mitoxantrone measured after 180 mins by flow cytometry; assay type: cell-based; conditions: Canis lupus familiaris, dose 0.1-5 µM, time 240.0 min
in vivo [9] = conditions: Sprague-Dawley, rat, po, 20 mg/kg
[10] = Cmax in Sprague-Dawley rat at 20 mg/kg, po in presence of N-(2-(6,7-Dimethoxy-3,4-dihydroisoquinolin-2(1H)-yl)ethyl)-3-((4-(furan-2-yl)pyrimidin-2-yl)amino)-4-methylbenzamide by UHPLC-MS analysis; assay type: ADME, organism-based; set-up: route oral, dose 20 mg/kg; conditions: in vivo
[11] = Apparent oral clearance in Sprague-Dawley rat at 20 mg/kg, po by UHPLC-MS analysis; assay type: ADME, organism-based; conditions: in vivo
[12] = Oral bioavailability in Sprague-Dawley rat at 20 mg/kg in presence of N-(2-(6,7-Dimethoxy-3,4-dihydroisoquinolin-2(1H)-yl)ethyl)-3-((4-(furan-2-yl)pyrimidin-2-yl)amino)-4-methylbenzamide by UHPLC-MS analysis; assay type: ADME, organism-based; conditions: in vivo
[13] = AUC (0 to t) in Sprague-Dawley rat at 20 mg/kg, po by UHPLC-MS analysis; assay type: ADME, organism-based; set-up: dose 20 mg/kg; conditions: in vivo
[14] = Cmax in Sprague-Dawley rat at 5 mg/kg, iv by UHPLC-MS analysis; assay type: ADME, organism-based; set-up: route intravenous, dose 5 mg/kg; conditions: in vivo
[15] = Apparent oral clearance in Sprague-Dawley rat at 20 mg/kg, po in presence of N-(2-(6,7-Dimethoxy-3,4-dihydroisoquinolin-2(1H)-yl)ethyl)-3-((4-(furan-2-yl)pyrimidin-2-yl)amino)-4-methylbenzamide by UHPLC-MS analysis; assay type: ADME, organism-based; conditions: in vivo
[16] = AUC (0 to t) in Sprague-Dawley rat at 20 mg/kg, po in presence of N-(2-(6,7-Dimethoxy-3,4-dihydroisoquinolin-2(1H)-yl)ethyl)-3-((4-(furan-2-yl)pyrimidin-2-yl)amino)-4-methylbenzamide by UHPLC-MS analysis; assay type: ADME, organism-based; set-up: dose 20 mg/kg; conditions: in vivo
[17] = Apparent oral volume of distribution in Sprague-Dawley rat at 5 mg/kg, iv by UHPLC-MS analysis; assay type: ADME, organism-based; conditions: in vivo
[18] = Bioavailability in Sprague-Dawley rat at 5 mg/kg, iv by UHPLC-MS analysis; assay type: ADME, organism-based; conditions: in vivo
[19] = Apparent oral volume of distribution in Sprague-Dawley rat at 20 mg/kg, po by UHPLC-MS analysis; assay type: ADME, organism-based; conditions: in vivo
[20] = Apparent oral volume of distribution in Sprague-Dawley rat at 20 mg/kg, po in presence of N-(2-(6,7-Dimethoxy-3,4-dihydroisoquinolin-2(1H)-yl)ethyl)-3-((4-(furan-2-yl)pyrimidin-2-yl)amino)-4-methylbenzamide by UHPLC-MS analysis; assay type: ADME, organism-based; conditions: in vivo
[21] = Tmax in Sprague-Dawley rat at 20 mg/kg, po by UHPLC-MS analysis; assay type: ADME, organism-based; conditions: in vivo
[22] = AUC (0 to t) in Sprague-Dawley rat at 5 mg/kg, iv by UHPLC-MS analysis; assay type: ADME, organism-based; set-up: dose 5 mg/kg; conditions: in vivo
[23] = Oral bioavailability in Sprague-Dawley rat at 20 mg/kg by UHPLC-MS analysis; assay type: ADME, organism-based; conditions: in vivo
[24] = Tmax in Sprague-Dawley rat at 5 mg/kg, iv by UHPLC-MS analysis; assay type: ADME, organism-based; conditions: in vivo
[25] = Cmax in Sprague-Dawley rat at 20 mg/kg, po by UHPLC-MS analysis; assay type: ADME, organism-based; set-up: route oral, dose 20 mg/kg; conditions: in vivo
[26] = Tmax in Sprague-Dawley rat at 20 mg/kg, po in presence of N-(2-(6,7-Dimethoxy-3,4-dihydroisoquinolin-2(1H)-yl)ethyl)-3-((4-(furan-2-yl)pyrimidin-2-yl)amino)-4-methylbenzamide by UHPLC-MS analysis; assay type: ADME, organism-based; conditions: in vivo
[27] = Apparent oral clearance in Sprague-Dawley rat at 5 mg/kg, iv by UHPLC-MS analysis; assay type: ADME, organism-based; conditions: in vivo
in vivo [28] = conditions: Sprague-Dawley, rat, iv, 5 mg/kg

T1 sequence (P08183 whole entry): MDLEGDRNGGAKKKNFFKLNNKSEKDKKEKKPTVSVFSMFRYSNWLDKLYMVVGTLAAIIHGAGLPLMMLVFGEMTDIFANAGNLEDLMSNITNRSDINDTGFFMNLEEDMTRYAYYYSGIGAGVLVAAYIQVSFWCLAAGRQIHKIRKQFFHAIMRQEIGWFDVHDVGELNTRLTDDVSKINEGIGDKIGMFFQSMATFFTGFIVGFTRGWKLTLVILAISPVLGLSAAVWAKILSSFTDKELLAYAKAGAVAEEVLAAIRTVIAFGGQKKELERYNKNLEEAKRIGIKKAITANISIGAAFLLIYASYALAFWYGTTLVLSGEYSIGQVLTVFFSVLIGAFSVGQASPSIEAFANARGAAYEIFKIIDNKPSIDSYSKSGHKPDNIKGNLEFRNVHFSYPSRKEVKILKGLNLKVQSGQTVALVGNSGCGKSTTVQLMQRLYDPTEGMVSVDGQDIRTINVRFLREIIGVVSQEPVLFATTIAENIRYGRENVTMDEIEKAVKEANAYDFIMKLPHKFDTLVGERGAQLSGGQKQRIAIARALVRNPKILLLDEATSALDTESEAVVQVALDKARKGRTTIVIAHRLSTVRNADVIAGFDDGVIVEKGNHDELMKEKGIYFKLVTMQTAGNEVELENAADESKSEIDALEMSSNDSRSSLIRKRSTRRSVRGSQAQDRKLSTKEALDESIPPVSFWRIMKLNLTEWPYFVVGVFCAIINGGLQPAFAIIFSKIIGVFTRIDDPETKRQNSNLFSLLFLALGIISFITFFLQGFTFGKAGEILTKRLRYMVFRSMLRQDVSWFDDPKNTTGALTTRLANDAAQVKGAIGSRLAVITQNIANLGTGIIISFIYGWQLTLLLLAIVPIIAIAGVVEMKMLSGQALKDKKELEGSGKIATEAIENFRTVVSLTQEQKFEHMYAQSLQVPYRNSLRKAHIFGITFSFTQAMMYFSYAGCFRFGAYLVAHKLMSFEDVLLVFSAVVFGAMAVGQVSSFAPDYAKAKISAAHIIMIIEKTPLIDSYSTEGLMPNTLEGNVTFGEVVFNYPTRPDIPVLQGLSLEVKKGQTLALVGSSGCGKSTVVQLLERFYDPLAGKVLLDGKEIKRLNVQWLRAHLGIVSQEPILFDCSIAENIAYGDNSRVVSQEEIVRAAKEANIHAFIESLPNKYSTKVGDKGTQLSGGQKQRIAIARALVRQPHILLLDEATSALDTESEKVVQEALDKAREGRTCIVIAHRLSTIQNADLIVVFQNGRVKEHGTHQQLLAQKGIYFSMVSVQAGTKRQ

Structure (SMILES)	IC50 (MDCK-II [1])	IC50 (K562 [2])	IC50 (MDCK-II [3])	IC50 (K562/A02; read-out: IC50)	logP [7]	other results
Cc1ccc(NC(=O)c2ccc(CN3CCN(C)CC3)cc2)cc1Nc1nccc(-c2cccnc2)n1 [IMATINIB]	> 100 µM	87.3 µM	65.8 µM			IC50 (K562/A02): 75.7 µM; viability at 5 µM (K562 [4]): 81.6%
COc1ccc(CCN(C)CCCC(C#N)(c2ccc(OC)c(OC)c2)C(C)C)cc1OC (stereo unspecified)		> 100 µM		> 100 µM		Activity [5]: Dose-Dependent Effect; Activity [6]: Active
COc1cc2c(cc1OC)CN(CCc1ccc(NC(=O)c3cc(=O)c4cc(F)ccc4o3)cc1)CC2	> 100 µM	> 100 µM	> 100 µM	82 µM		
COc1cc2c(cc1OC)CN(CCc1ccc(NC(=O)c3ccc(C)c(Nc4nccc(-c5ccccc5O)n4)c3)cc1)CC2	> 100 µM	> 100 µM	> 100 µM	> 100 µM	2.77	
COc1cc2c(cc1OC)CN(CCNC(=O)c1ccc(C)c(Nc3nccc(-c4ccccn4)n3)c1)CC2	64.2 µM	> 100 µM	> 100 µM	89.6 µM	1.71	
COc1cc2c(cc1OC)CN(CCNC(=O)c1ccc(C)c(Nc3nccc(-c4ccccc4O)n3)c1)CC2		> 100 µM	91.4 µM	52.3 µM	2.31	
COc1cc2c(cc1OC)CN(CCc1ccc(NC(=O)c3ccc(C)c(Nc4nccc(-c5ccc(C)cc5)n4)c3)cc1)CC2	61.3 µM	> 100 µM	> 100 µM			
COc1cc2c(cc1OC)CN(CCNC(=O)c1ccc(C)c(Nc3nccc(-c4ccc(F)cc4)n3)c1)CC2	57.6 µM	> 100 µM	> 100 µM	75.3 µM	2.04	
COc1cc2c(cc1OC)CN(CCc1ccc(NC(=O)c3ccc(C)c(Nc4nccc(-c5ccccn5)n4)c3)cc1)CC2	> 100 µM	> 100 µM	> 100 µM	89.6 µM	1.73	
COc1cc2c(cc1OC)CN(CCNC(=O)c1ccc(C)c(Nc3nccc(-c4ccc(C)cc4)n3)c1)CC2	42.1 µM	73.8 µM	> 100 µM	58.7 µM		
COc1cc2c(cc1OC)CN(CCc1ccc(NC(=O)c3ccc(C)c(Nc4nccc(-c5ccccc5)n4)c3)cc1)CC2	79.7 µM	> 100 µM	> 100 µM	> 100 µM	1.89	
COc1cc2c(cc1OC)CN(CCc1ccc(NC(=O)c3cc(=O)c4ccccc4o3)cc1)CC2	> 100 µM	> 100 µM	> 100 µM	> 100 µM	0.93	
COc1ccc2c3c([nH]c2c1)[C@H](CC(C)C)N1C(=O)[C@H](CCC(=O)OC(C)(C)C)NC(=O)[C@@H]1C3	58.3 µM	71.5 µM	87.2 µM	58.7 µM		Activity (MDCK-II [8]): Active
COc1ccc(-c2ccnc(Nc3cc(C(=O)NCCN4CCc5cc(OC)c(OC)cc5C4)ccc3C)n2)cc1	55.2 µM	> 100 µM	> 100 µM	64.9 µM	2.16	
COc1cc2c(cc1OC)CN(CCc1ccc(NC(=O)c3cc(=O)c4c(OC)cccc4o3)cc1)CC2	> 100 µM	> 100 µM	> 100 µM	> 100 µM	0.76	
COc1cc2c(cc1OC)CN(CCc1ccc(NC(=O)c3ccc(C)c(Nc4nccc(-c5cccs5)n4)c3)cc1)CC2	> 100 µM	> 100 µM	> 100 µM	> 100 µM	1.48	
COc1cc2c(cc1OC)CN(CCc1ccc(NC(=O)c3cc(OC)c(OC)cc3NC(=O)c3cnc4ccccc4c3)cc1)CC2	83.6 µM	> 100 µM	> 100 µM	> 100 µM		Activity (MDCK-II [8]): Active; Activity [5]: Dose-Dependent Effect; Activity [6]: Active; viability at 5 µM (K562 [4]): 61.3%
COc1ccc(-c2ccnc(Nc3cc(C(=O)Nc4ccc(CCN5CCc6cc(OC)c(OC)cc6C5)cc4)ccc3C)n2)cc1	> 100 µM	> 100 µM	> 100 µM	> 100 µM	1.35	
COc1cc2c(cc1OC)CN(CCc1ccc(NC(=O)c3ccc(C)c(Nc4nccc(-c5cccc(O)c5)n4)c3)cc1)CC2	> 100 µM	> 100 µM	> 100 µM	84.2 µM	2.28	
COc1cc2c(cc1OC)CN(CCc1ccc(NC(=O)c3cc(=O)c4c(O)cccc4o3)cc1)CC2	68.4 µM	> 100 µM	85.7 µM	45.3 µM	1.78	
COc1cc2c(cc1OC)CN(CCNC(=O)c1ccc(C)c(Nc3nccc(-c4cccs4)n3)c1)CC2	61.5 µM	> 100 µM	> 100 µM	72 µM	1.94	
COc1cc2c(cc1OC)CN(CCNC(=O)c1ccc(C)c(Nc3nccc(-c4ccccc4)n3)c1)CC2	4740 µM	> 100 µM	> 100 µM	66.2 µM	1.9	
COc1cc2c(cc1OC)CN(CCc1ccc(NC(=O)c3ccc(C)c(Nc4nccc(-c5cccnc5)n4)c3)cc1)CC2	> 100 µM	> 100 µM	> 100 µM	60.4 µM	1.86	
COc1cc2c(cc1OC)CN(CCNC(=O)c1ccc(C)c(Nc3nccc(-c4cccc(O)c4)n3)c1)CC2	72.6 µM	> 100 µM	> 100 µM	57.5 µM		
COc1cc2c(cc1OC)CN(CCc1ccc(NC(=O)c3ccc(C)c(Nc4nccc(-c5ccc(F)cc5)n4)c3)cc1)CC2	> 100 µM	> 100 µM	> 100 µM	> 100 µM	1.19	
COc1cc2c(cc1OC)CN(CCc1ccc(NC(=O)c3cc(=O)c4ccc(C)cc4o3)cc1)CC2	88.7 µM	> 100 µM	> 100 µM	> 100 µM	1.87	
COc1cc2c(cc1OC)CN(CCNC(=O)c1ccc(C)c(Nc3nccc(-c4cccnc4)n3)c1)CC2	> 100 µM	> 100 µM	> 100 µM	> 100 µM	0.8	
CC(=O)O[C@H]1C(=O)[C@@]2(C)[C@H]([C@H](OC(=O)c3ccccc3)[C@]3(O)C[C@H](OC(=O)[C@H](O)[C@@H](NC(=O)c4ccccc4)c4ccccc4)C(C)=C1C3(C)C)[C@]1(OC(C)=O)CO[C@@H]1C[C@@H]2O [PACLITAXEL]						half-life (in vivo [9]): 1.35 h; Cmax [10]: 853 ng/mL; CL/F [11]: 546 mL/min; bioavailability [12]: 64.7%; AUC(0-t) [13]: 611 ng·h/mL; Cmax [14]: 926 ng/mL; CL/F [15]: 4.43 L/h; AUC(0-t) [16]: 4490 ng·h/mL; Vd/F [17]: 5.06 L; F [18]: 100%; Vd/F [19]: 67.4 L; Vd/F [20]: 19.06 L; Tmax [21]: 2 h; AUC(0-t) [22]: 1730 ng·h/mL; bioavailability [23]: 8.8%; Tmax [24]: 0.44 h; Cmax [25]: 233 ng/mL; Tmax [26]: 2.65 h; CL/F [27]: 2.88 L/h; half-life (in vivo [28]): 7.2 min
COc1cc2c(cc1OC)CN(CCc1ccc(NC(=O)c3ccc(C)c(Nc4nccc(-c5ccco5)n4)c3)cc1)CC2	> 100 µM	> 100 µM	> 100 µM	> 100 µM	1.7	
